Holding throughout (type): functional
The species entered for assay [1] is Mus musculus. The experiment in a line: Animal body weight was evaluated in Swiss white mice before treatment with the compound.
In assay [2] the test system is Mus musculus. Nature of the assay: Plasma triglyceride level was evaluated in Swiss white mice treated with 20 mg/kg/day of ip administration for 14 days. The note with it: route intraperitoneal.
For assay [3], the system named is Mus musculus. The experiment in a line: Plasma cholesterol level was evaluated in Swiss white mice treated with 20 mg/kg/day of ip administration for 14 days. The note with it: route intraperitoneal.
For assay [4], the species on record is Mus musculus. The experiment in a line: Plasma cholesterol level was evaluated in Swiss white mice before treatment with the compound.
The species named for assay [5] is Mus musculus. Nature of the assay: Plasma triglyceride level was evaluated in Swiss white mice before treatment with the compound.
Assay [6] has as its system Mus musculus. The experiment in a line: Animal body weight was evaluated in Swiss white mice treated with 20 mg/kg/day of ip administration for 14 days. The note with it: route intraperitoneal.

Molecules are shown by their SMILES.

In the case of `O=C(O)c1ccccc1C(=O)Nn1cnnc1`, the Body weight in the assay filed under Mus musculus [1] turned out to be 35 g; in the assay on Mus musculus [6], 39 g. In addition, the Triglycerides is under 1.49 mM with Mus musculus [2] and 1.12 mM in the assay listed under Mus musculus [5]. The Cholesterol with Mus musculus [3] was found to be 2.95 mM; in the assay listed under Mus musculus [4], 2.46 mM.
In the case of `O=C(O)c1ccccc1C(=O)Nc1ccc(F)cc1`, the Body weight is listed as 20 g in the assay listed under Mus musculus [1] and under 25 g with Mus musculus [6]. The values for the Triglycerides in the assay on Mus musculus [2] and in the assay filed under Mus musculus [5] were under 1.48 mM and 1.26 mM, respectively. The Cholesterol in the assay on Mus musculus [3] is under 3.17 mM; in the assay listed under Mus musculus [4] it was 2.66 mM.
For `O=C(O)c1ccccc1C(=O)Nc1cccc(Cl)c1`, the results for the Body weight in the assay listed under Mus musculus [1] and with Mus musculus [6] were 24 g and under 28 g, respectively. In addition, the Triglycerides is under 1.28 mM in the assay with Mus musculus [2] and 1.04 mM in the assay listed under Mus musculus [5]. In addition, the Cholesterol was under 2.48 mM in the assay with Mus musculus [3] and 2.17 mM in the assay filed under Mus musculus [4].
Regarding `O=C(O)c1ccccc1C(=O)Nc1ccccc1F`, the Body weight in the assay listed under Mus musculus [1] is 26 g; in the assay with Mus musculus [6], under 30 g. In addition, the results for the Triglycerides in the assay with Mus musculus [2] and in the assay filed under Mus musculus [5] were under 1.23 mM and 0.94 mM, respectively. Besides, the Cholesterol in the assay with Mus musculus [3] is under 3.4 mM; in the assay filed under Mus musculus [4], 3.06 mM.
For the compound `O=C(O)c1ccccc1C(=O)Nc1ccccc1Cl`, the Body weight is on record as 26 g in the assay listed under Mus musculus [1] and under 29 g in the assay on Mus musculus [6]. The Triglycerides is under 1.32 mM with Mus musculus [2] and 1.06 mM in the assay filed under Mus musculus [5]. The Cholesterol with Mus musculus [3] is under 2.43 mM; in the assay filed under Mus musculus [4], 2.11 mM.
Regarding `O=C(O)c1ccccc1C(=O)Nc1ccccc1`, the Body weight is 28 g in the assay listed under Mus musculus [1] and 29 g in the assay with Mus musculus [6]. The Triglycerides in the assay with Mus musculus [2] is under 1.3 mM; in the assay listed under Mus musculus [5] it was 1.07 mM. In addition, the values for the Cholesterol with Mus musculus [3] and in the assay listed under Mus musculus [4] were under 3.06 mM and 2.71 mM, respectively.
In the case of `O=C(O)c1ccccc1C(=O)Nc1nc[nH]n1`, the Body weight in the assay filed under Mus musculus [1] is recorded as 35 g; in the assay with Mus musculus [6] it was 38 g. Also, the Triglycerides with Mus musculus [2] was under 1.58 mM; in the assay listed under Mus musculus [5], 1.14 mM. Besides, the Cholesterol in the assay on Mus musculus [3] stood at 2.78 mM; in the assay filed under Mus musculus [4] it was 2.45 mM.
With `O=C(O)c1ccccc1C(=O)Nc1ccc(Cl)cc1`, the Body weight in the assay listed under Mus musculus [1] came to 25 g; in the assay with Mus musculus [6], 28 g. Moreover, the Triglycerides was under 1.06 mM in the assay on Mus musculus [2] and 0.86 mM in the assay filed under Mus musculus [5]. Further, the Cholesterol was under 2.51 mM in the assay on Mus musculus [3] and 2.3 mM in the assay filed under Mus musculus [4].
Consider `O=C(O)c1ccccc1C(=O)Nc1cccc(F)c1`, for which the Body weight is 26 g in the assay filed under Mus musculus [1] and under 29 g in the assay on Mus musculus [6]. Further, the Triglycerides is under 1.35 mM in the assay with Mus musculus [2] and 1.01 mM in the assay filed under Mus musculus [5]. Besides, the results for the Cholesterol in the assay with Mus musculus [3] and in the assay listed under Mus musculus [4] were under 3.28 mM and 3.02 mM, respectively.

For the origin of these results see ChEMBL document CHEMBL1133800, “Microwave assisted synthesis of N-arylphthalamic acids with hyperlipidemic activity” (2001).
